Among the test systems are SK-MEL-2; TK-10; OVCAR-3; SN12C; KM12; CCRF-CEM; HOP-62; SF-268; OVCAR-5; HCT-116; UO-31; SK-OV-3; CAKI-1; K562; RPMI-8226; SK-MEL-28; U-251; HL-60; NCI-H460; MCF7.
Common to all, as to assay: DTP human tumour cell line panel, 48 h

Molecules are shown by their SMILES.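 Grown in 96-well plates, cells were treated for 48 hours with each compound at five concentrations. Insufficient inhibition: endpoint recorded as highest concentration tested. At the GI50, growth is halved.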 Activity calls are given as the source filed them. No stated cut-off is given here; in the data, active = GI50 up to about 1.1 µM and inactive = higher.

Consider `O=C(O)CCCSc1nc2ccccc2s1`, for which the GI50 in the assay with SK-MEL-2, with TK-10, in the assay on OVCAR-3, in the assay with SN12C, in the assay on KM12 and in the assay on CCRF-CEM was > 100 µM (inactive) throughout. In addition, the GI50 with HOP-62, in the assay with SF-268, with OVCAR-5, in the assay with HCT-116, in the assay with UO-31 and with SK-OV-3 was > 100 µM (inactive) in each case. Besides, the GI50 with CAKI-1, in the assay with K562, in the assay on RPMI-8226, with SK-MEL-28, in the assay with U-251 and in the assay on HL-60 was > 100 µM (inactive) each time. Further, the GI50 with NCI-H460 and in the assay with MCF7 was > 100 µM (inactive) throughout.
For the compound `CC(=O)c1c(C)[n+]([O-])c2cc(Cl)c(Cl)cc2[n+]1[O-]`, the GI50 in the assay on SK-MEL-2 was 27.6 µM (inactive); in the assay on TK-10, 16.9 µM (inactive); in the assay with OVCAR-3, 19.9 µM (inactive); in the assay on SN12C it was 20.2 µM (inactive); in the assay on KM12, 10.3 µM (inactive); with CCRF-CEM, 13.7 µM (inactive). For the same compound, the GI50 with HOP-62 was 23.1 µM (inactive); with SF-268 it was 28.3 µM (inactive); with OVCAR-5 it was 38.3 µM (inactive); in the assay with HCT-116, 15.6 µM (inactive); in the assay on UO-31, 14.9 µM (inactive); in the assay on SK-OV-3 it was 19.4 µM (inactive). In addition, the GI50 in the assay with CAKI-1 was 18.7 µM (inactive); in the assay with K562, 19.4 µM (inactive); in the assay on RPMI-8226, 5.5 µM (inactive); with SK-MEL-28 it was 29.8 µM (inactive); in the assay on U-251, 21.8 µM (inactive); in the assay with HL-60, 10.4 µM (inactive). The GI50 in the assay on NCI-H460 was 12 µM (inactive); with MCF7, 14.8 µM (inactive).
Regarding `Clc1ccc(NCNC2Nc3ccccc3N2)cc1Cl`, the GI50 in the assay with SK-MEL-2 was 32 µM (inactive); with TK-10 it was 55.6 µM (inactive); in the assay with OVCAR-3 it was 29.3 µM (inactive); with SN12C, 22.6 µM (inactive); in the assay with KM12, 11.9 µM (inactive); with CCRF-CEM, 25 µM (inactive). Further, the GI50 in the assay on HOP-62 was 72.1 µM (inactive); in the assay on SF-268, 28.4 µM (inactive); with OVCAR-5, > 100 µM (inactive); in the assay on HCT-116, 36.7 µM (inactive); with UO-31, 27.4 µM (inactive); with SK-OV-3 it was 48.8 µM (inactive). In addition, the GI50 in the assay on CAKI-1 is 34.6 µM (inactive); with K562 it was 12.4 µM (inactive); with RPMI-8226 it was 26.4 µM (inactive); with SK-MEL-28, 70.5 µM (inactive); in the assay with U-251 it was 52.5 µM (inactive); with HL-60, 41.3 µM (inactive). For the same compound, the GI50 was 24.2 µM (inactive) with NCI-H460 and 0.247 µM (active) with MCF7.
Regarding `COCOCC1CCCN1CN1CCC[C@H]1COCOC` (stereo not given in full), the GI50 was > 100 µM (inactive) in the assay on SK-MEL-2; > 100 µM (inactive) in the assay on TK-10; > 100 µM (inactive) with OVCAR-3; > 100 µM (inactive) in the assay on SN12C; > 100 µM (inactive) with KM12; 39.2 µM (inactive) in the assay with CCRF-CEM. Also, the GI50 is > 100 µM (inactive) with HOP-62; > 100 µM (inactive) in the assay on SF-268; > 100 µM (inactive) in the assay on OVCAR-5; 26.9 µM (inactive) with HCT-116; > 100 µM (inactive) with UO-31; > 100 µM (inactive) with SK-OV-3. Also, the GI50 with CAKI-1 was > 100 µM (inactive); with K562, > 100 µM (inactive); with RPMI-8226 it was 33.8 µM (inactive); in the assay with SK-MEL-28, > 100 µM (inactive); in the assay with U-251, > 100 µM (inactive); in the assay with HL-60, 17.6 µM (inactive). Moreover, the values for the GI50 in the assay with NCI-H460 and in the assay with MCF7 were 60.5 µM (inactive) and 53.1 µM (inactive), respectively.
As to `Clc1ccc(CCN(CCc2ccc(Cl)c(Cl)c2)CCN2CCCC2)cc1Cl`, the GI50 with SK-MEL-2 is 1.67 µM (inactive); with TK-10 it was 1.78 µM (inactive); with OVCAR-3 it was 1.73 µM (inactive); in the assay with SN12C, 1.87 µM (inactive); with KM12 it was 1.67 µM (inactive); with CCRF-CEM, 1.15 µM (inactive). Further, the GI50 in the assay on HOP-62 was 1.67 µM (inactive); in the assay on SF-268, 1.73 µM (inactive); with OVCAR-5, 1.6 µM (inactive); with HCT-116, 1.69 µM (inactive); in the assay on UO-31 it was 1.64 µM (inactive); in the assay on SK-OV-3 it was 1.78 µM (inactive). The GI50 in the assay on CAKI-1 is 1.64 µM (inactive); in the assay with K562 it was 2.25 µM (inactive); in the assay with RPMI-8226, 2.16 µM (inactive); with SK-MEL-28 it was 1.77 µM (inactive); with U-251, 1.6 µM (inactive); in the assay on HL-60, 1.39 µM (inactive). Further, the GI50 in the assay on NCI-H460 was 1.86 µM (inactive); with MCF7 it was 1.51 µM (inactive).
Consider `NC(Cc1ccc2nc3c4ccccc4c(=O)cc-3oc2c1)C(=O)O` (stereo not given), for which the GI50 in the assay with SK-MEL-2 is 53.3 µM (inactive); in the assay on TK-10 it was > 100 µM (inactive); in the assay with OVCAR-3 it was 74.1 µM (inactive); in the assay on SN12C, > 100 µM (inactive); in the assay on KM12, > 100 µM (inactive); in the assay with CCRF-CEM, > 100 µM (inactive). The GI50 in the assay with HOP-62, with SF-268, with OVCAR-5, with HCT-116, in the assay with UO-31 and in the assay on SK-OV-3 was > 100 µM (inactive) in each case. Also, the GI50 in the assay on CAKI-1, in the assay with K562, with RPMI-8226, in the assay with SK-MEL-28, in the assay on U-251 and in the assay with HL-60 was > 100 µM (inactive) in each case. The GI50 with NCI-H460 is > 100 µM (inactive); in the assay on MCF7 it was 18.4 µM (inactive).
On to `Fc1ccccc1/N=c1\oc2ccc(Br)cc2cc1-c1nc2ccccc2[nH]1`, for which the GI50 is 8.18 µM (inactive) in the assay on SK-MEL-2; 6.59 µM (inactive) in the assay with TK-10; 6.15 µM (inactive) in the assay on OVCAR-3; 16.6 µM (inactive) in the assay with SN12C; > 20.7 µM (inactive) in the assay with KM12; > 100 µM (inactive) in the assay with CCRF-CEM. Besides, the GI50 in the assay with HOP-62 was 3.65 µM (inactive); in the assay on SF-268 it was 0.522 µM (active); in the assay with OVCAR-5 it was 34.8 µM (inactive); with HCT-116, 8.61 µM (inactive); in the assay on UO-31, 8.04 µM (inactive); in the assay on SK-OV-3, 10.7 µM (inactive). The GI50 with CAKI-1 is 9.55 µM (inactive); in the assay with K562 it was > 25.6 µM (inactive); in the assay on RPMI-8226, 28 µM (inactive); in the assay on SK-MEL-28 it was 14.5 µM (inactive); in the assay with U-251, 6 µM (inactive); in the assay with HL-60, > 100 µM (inactive). Moreover, the results for the GI50 with NCI-H460 and with MCF7 were 15 µM (inactive) and 14.8 µM (inactive), respectively.
As to `O=C(Nc1nnc(-c2ccc(Cl)cc2)o1)C(SC(=S)N1CCCCC1)c1ccccc1` (stereo not given), the GI50 in the assay with SK-MEL-2 is 15.7 µM (inactive); in the assay on TK-10, 34 µM (inactive); with OVCAR-3, 19.3 µM (inactive); in the assay on SN12C, 12.5 µM (inactive); with KM12, 24.8 µM (inactive); in the assay with CCRF-CEM, 4.71 µM (inactive). Besides, the GI50 with HOP-62 was 25.9 µM (inactive); with SF-268, 6.5 µM (inactive); with OVCAR-5 it was 21.5 µM (inactive); with HCT-116, 12.7 µM (inactive); in the assay on UO-31, 10.5 µM (inactive); with SK-OV-3, 32.3 µM (inactive). The GI50 was 13.6 µM (inactive) in the assay on CAKI-1; 11.6 µM (inactive) in the assay with K562; 11.2 µM (inactive) with RPMI-8226; 18.1 µM (inactive) in the assay on SK-MEL-28; 13 µM (inactive) in the assay with U-251; 8.59 µM (inactive) with HL-60. The GI50 in the assay on NCI-H460 is 7.6 µM (inactive); in the assay on MCF7, 18.7 µM (inactive).
As for `O=c1/c(=C/c2ccc([N+](=O)[O-])o2)sc2n1[C@@H](c1ccc3c(c1)OCO3)C=C(c1cc(F)c(Cl)cc1Cl)N=2`, the GI50 in the assay on SK-MEL-2 was 25.1 µM (inactive); in the assay on TK-10, 23.3 µM (inactive); in the assay with OVCAR-3 it was 16.8 µM (inactive); with SN12C, 18 µM (inactive); with KM12, 16.6 µM (inactive); in the assay on CCRF-CEM it was 3.24 µM (inactive). Moreover, the GI50 in the assay on HOP-62 was 22.5 µM (inactive); in the assay with SF-268, 28.7 µM (inactive); in the assay on OVCAR-5 it was 21.7 µM (inactive); in the assay on HCT-116, 5.11 µM (inactive); with UO-31, 16.7 µM (inactive); with SK-OV-3, 46.5 µM (inactive). In addition, the GI50 in the assay on CAKI-1 is 13.7 µM (inactive); in the assay on K562 it was 5.09 µM (inactive); in the assay on RPMI-8226, 9.31 µM (inactive); in the assay on SK-MEL-28, 22.3 µM (inactive); in the assay with U-251, 19.9 µM (inactive); in the assay on HL-60, 15.6 µM (inactive). For the same compound, the GI50 in the assay on NCI-H460 is 17.8 µM (inactive); with MCF7, 10 µM (inactive).
For `CN(C)CCNc1ccc2ncnc3c2c1C(=O)c1ccccc1-3`, the GI50 in the assay with SK-MEL-2 is 1.76 µM (inactive); with TK-10 it was 0.175 µM (active); in the assay with OVCAR-3, 0.556 µM (active); in the assay with SN12C, 0.332 µM (active); with KM12, 0.393 µM (active); in the assay on CCRF-CEM, 0.143 µM (active). The GI50 is 0.242 µM (active) in the assay with HOP-62; 0.513 µM (active) in the assay with SF-268; 0.488 µM (active) in the assay on OVCAR-5; 0.0676 µM (active) in the assay with HCT-116; 0.468 µM (active) in the assay on UO-31; 1.81 µM (inactive) in the assay with SK-OV-3. For the same compound, the GI50 in the assay with CAKI-1 was 0.259 µM (active); with K562 it was 0.221 µM (active); with RPMI-8226 it was 0.263 µM (active); in the assay with SK-MEL-28, 2.33 µM (inactive); with U-251 it was 0.49 µM (active); in the assay on HL-60 it was 2.58 µM (inactive). The GI50 in the assay with NCI-H460 is 0.443 µM (active); in the assay with MCF7, 0.406 µM (active).

Source of the values: ChEMBL document CHEMBL1201862, “PubChem BioAssay data set” (2004).
